“And” between values parts separate entries of the source, which are not always exact repeats. Identical values can stand only once. Like-named read-outs stand apart in the source and are kept apart here.
Tests used:
sperm = details: background statement; cited from earlier work
[1] = cited from earlier work; for Expected Absorption Maxima: solvent water
[2] = tested on: membrane compromised bovine sperm stained with Hoechst 33342; experiment: Dead quenching: dead gate intensity divided by live gate intensity, flow cytometry of stained bovine sperm; assay type: cell-based; details: Ex 10; Y6 25 μM
Text: FIG. 4 illustrates an example bivariate plot and univariate histogram of the parameters measured during sex selection by a FACS on a flow cytometer. […] Without a dead quenching dye, both populations of sperm would overlap to a large extent, with unpredictable variations in the dead sperm.
The entire ejaculate of sperm was suspended in first staining buffer, specifically a 7.4 pH TALP described in TABLE 1, to a concentration of 160×10^6 sperm per mL (determined on nucleocounter) and divided into three aliquots of about 20 mL into 50 mL Falcon tubes and pre-warmed for 10 minutes at 34° C. The DNA selective fluorescent dye, Hoechst 33342, was added and samples were held at 34° C. for 60 minutes. 3 different Hoechst 33342 Stain Levels were used=12 μL, 14 μL and 16 μL per 2 mL (effective concentrations of 48 μM, 56 μM, 64 μM).
Preparation of the second buffer including the dead quenching dye—A 2 L bag of TALP, described in TABLE 1, was adjusted to pH 5.60 using HCl and then sterile filtered. […] For each of the four dyes tested (R40—red food dye No. 40, Y5—yellow food dye No. 5, Y6—yellow food dye No. 6 and PR—phenol red), an appropriate number of milligrams of each powder was placed in a Erlenmeyer Flask and then an exact amount of TALP pH 5.60 was added to create a […] concentration of the dye. The result was a working TALP stock for each dye with a 100% (125 μM) relative amount of dye 50% relative (62.5 μM) and 20% relative (25 μM) solutions were made by dilution of 100% by TALP pH 5.60.
After this “bulk” staining for 60 minutes, 1 mL aliquots of stained sperm were combined with 1 mL aliquots of the second buffer including the dead quenching dyes. Samples sat for approximately 30 minutes at room temperature before being analyzed on a MoFlo SX (Beckman Coulter, USA) sperm sorting flow cytometer. Event rates were held as close to 13,000 as possible at the point of data acquisition.
The total number of individual treatments was 42 tubes, each containing 2 mL of stained sample. The alignment of the sorter was established using nuclei and confirmed with live sample from the 50% Red 40 series. Once good alignment was established, each tube was placed on the sorter long enough to establish a stabile dead gate population (about 30 seconds) and then a screenshot was taken and saved as a .jpeg image. This approach of rapidly documenting each sample is used to assure the most consistent alignment between all samples. Realignment of sorter will not cause differences in the intensities of live and dead gate populations but will cause differences in split quality.
FIG. 4 illustrates an example histogram. The ratio of dead gate intensity divided by live gate intensity is created by dividing the distance “A” by the distance “B” shown as a percentage. Lower values mean higher levels of quenching. The ratio of peak height divided by valley height is created by dividing the distance “C” by the distance “D”. A value of 1.00 means “no split” while higher values mean “better splits”. […]

[3] = tested on: X- and Y-chromosome bearing bovine sperm stained with Hoechst 33342; experiment: Split quality: height of peak divided by height of valley (PV), flow cytometry of stained bovine sperm; assay type: cell-based; details: Ex 10; for split enhancing effect compared to control, in words: 15, 45, 125 μM, averaged over 8 bulls; for peak to valley ratio, average 8 bulls: Hoechst 64 μM
[4] = split enhancing dye 15 μM, 30 Min incubation, Y6 25 μM in second buffer
[5] = split enhancing dye 15 μM, 45 Min, Y6 25 μM
[6] = split enhancing dye 15 μM, 60 Min, Y6 25 μM
[7] = split enhancing dye 15 μM, 75 Min, Y6 25 μM
[8] = split enhancing dye 45 μM, 30 Min, Y6 25 μM
[9] = split enhancing dye 45 μM, 45 Min, Y6 25 μM
[10] = split enhancing dye 45 μM, 60 Min, Y6 25 μM
[11] = split enhancing dye 45 μM, 75 Min, Y6 25 μM
[12] = split enhancing dye 125 μM, 30 Min, Y6 25 μM
[13] = split enhancing dye 125 μM, 45 Min, Y6 25 μM
[14] = split enhancing dye 125 μM, 60 Min, Y6 25 μM
[15] = split enhancing dye 125 μM, 75 Min, Y6 25 μM

Q: With `CC[N+](C)(CC)CCC[n+]1c(-c2ccccc2)c2cc(N)ccc2c2ccc(N)cc21.[I-].[I-]` [propidium iodine] as the compound, how does the toxicity to sperm (sperm) read?
A: Its toxicity to sperm is “toxic to sperm”.

Q: With `Cc1c(C(=O)O)c(O)cc2c1C(=O)c1c(O)c(C3O[C@H](CO)[C@@H](O)[C@H](O)[C@H]3O)c(O)c(O)c1C2=O` (stereo in doubt) [Red 4, carmine] as the compound, how does the “(local) maximum absorption wavelength, as believed” value ([1]; phenol red in the red molecular form, listed as red food dye No. 4) read?
A: Its value is 520 nm and 555 nm.

Q: What about the “Expected Absorption Maxima” value ([1]; listed as Red 4 (natural), longer-wavelength local maximum) of the same compound?
A: Its value is 555 nm.

Q: And the “Expected Absorption Maxima” value ([1]; listed as Red 4 (natural), shorter-wavelength local maximum)?
A: The value was 520 nm.

Q: What about the “dead quenching capacity of split enhancing dye in combination with yellow food dye No. 6 (FIG. 8)” value [2] of the same compound?
A: The value was “significant increase in quenching the dead subpopulation”.

Q: What about the “split enhancing effect compared to control, in words” value [3] of the same compound?
A: The value was “distinct improvements at all concentrations and at all times”.

Q: What about the “peak to valley ratio, average 8 bulls” value [3, 4] of the same compound?
A: The value was 1.09.

Q: And the “peak to valley ratio, average 8 bulls” value [3, 5]?
A: The value was 1.44.

Q: And the “peak to valley ratio, average 8 bulls” value [3, 6]?
A: The value was 1.79.

Q: And the “peak to valley ratio, average 8 bulls” value [3, 7]?
A: Its value is 1.91.

Q: What about the “peak to valley ratio, average 8 bulls” value [3, 8] of the same compound?
A: The value was 1.18.

Q: And the “peak to valley ratio, average 8 bulls” value [3, 9]?
A: Its value is 1.50.

Q: What about the “peak to valley ratio, average 8 bulls” value [3, 10] of the same compound?
A: The value was 1.76.

Q: And the “peak to valley ratio, average 8 bulls” value [3, 11]?
A: Its value is 1.94.

Q: And the “peak to valley ratio, average 8 bulls” value [3, 12]?
A: Its value is 1.13.

Q: What about the “peak to valley ratio, average 8 bulls” value [3, 13] of the same compound?
A: The value was 1.45.

Q: What about the “peak to valley ratio, average 8 bulls” value [3, 14] of the same compound?
A: Its value is 1.81.

Q: And the “peak to valley ratio, average 8 bulls” value [3, 15]?
A: Its value is 1.95.

Q: Which “Expected Absorption Maxima” value ([1]; shorter-wavelength local maximum) does the source give for `O=S(=O)([O-])c1ccc2c(N=Nc3ccc(S(=O)(=O)[O-])c4ccccc34)c(O)c(S(=O)(=O)[O-])cc2c1.[Na+].[Na+].[Na+]` [Red 2] here?
A: The value was 520 nm.

Q: What about the “dead quenching capacity of split enhancing dye in combination with yellow food dye No. 6 (FIG. 8)” value [2] of the same compound?
A: Its value is “strong dead quenching capacity”.

Q: What about the “split enhancing effect compared to control, in words” value [3] of the same compound?
A: Its value is “did not provide a split enhancing, or noise reducing effect”.

Q: And the “peak to valley ratio, average 8 bulls” value [3, 4]?
A: Its value is 1.06.

Q: And the “peak to valley ratio, average 8 bulls” value [3, 5]?
A: Its value is 1.15.

Q: What about the “peak to valley ratio, average 8 bulls” value [3, 6] of the same compound?
A: Its value is 1.54.

Q: And the “peak to valley ratio, average 8 bulls” value [3, 7]?
A: The value was 1.73.

Q: What about the “peak to valley ratio, average 8 bulls” value [3, 8] of the same compound?
A: The value was 1.00.

Q: And the “peak to valley ratio, average 8 bulls” value [3, 9]?
A: The value was 1.05.

Q: And the “peak to valley ratio, average 8 bulls” value [3, 10]?
A: The value was 1.12.

Q: What about the “peak to valley ratio, average 8 bulls” value [3, 11] of the same compound?
A: Its value is 1.38.

Q: What about the “peak to valley ratio, average 8 bulls” value [3, 12] of the same compound?
A: Its value is 1.00.

Q: What about the “peak to valley ratio, average 8 bulls” value [3, 13] of the same compound?
A: The value was 1.00.

Q: What about the “peak to valley ratio, average 8 bulls” value [3, 14] of the same compound?
A: Its value is 1.00.

Q: And the “peak to valley ratio, average 8 bulls” value [3, 15]?
A: Its value is 1.00.

Reference: US9140688B2, “Sperm staining and sorting methods” (INGURAN, LLC, priority 2011, dated 2015)
